Measurements reported in patent publication US20240423944A1, “USE OF LAURYL GALLATE (LG) AS A HEMOSTATIC AGENT” (CENTRE DE BIOTECHNOLOGIE DE SFAX (CBS), priority 2021, published 2024).

How the values were obtained:
washed human platelets [1] = assay: Washed platelet aggregation by turbidimetry (light transmission aggregometer); type: cell-based
Description: Healthy volunteers had abstained from Aspirin and others anti-inflammatory drugs for at least […] prior to blood sampling. Written informed consent was obtained from all donors. Blood samples were collected into sodium citrate 3.2% and centrifuged for 10 min at 190 g. The supernatant thus obtained was the platelet-rich plasma (PRP).
Washed platelets were prepared from centrifuged PRP previously supplemented with rostacyclin (0.5 μM) to avoid platelet activation. The pellet was suspended in buffer A (pH 6.8) containing 140 mM NaCl, 5 mM KCl, 5 mM KH2PO4, 1 mM MgSO4, 10 mM N-2-hydroxyethylpiperazine-N′-2-ethanesulfonic acid, 5 mM glucose and 0.35% bovine serum albumin (w/v). The same buffer containing 1 mM CaCl2 and apyrase but without BSA (adjusted to pH 7.4) was added to the final suspension to reach 2×10^8 platelets/ml.
Different concentrations of LG were added to 270 μl of PRP or washed platelets from an initial concentration of 250 mM. Platelet aggregation was recorded using a light transmission aggregometer (SD Medical). The percentage of transmittance of PRP or washed platelets was recorded as 0%, and that of the appropriate PPP or buffer was recorded as 100% respectively. Each condition was repeated for many healthy volunteers. Platelets treated with DMSO serves as negative control. Potentiation between low doses of LG and collagen or TRAP to aggregate platelets was also determined.

platelets = conditions: Hongyan and Richard, 2004; cited from earlier work
human whole blood = assay: Thrombus formation on immobilized collagen under flow conditions; type: cell-based; conditions: LG 0.05 mM
Description: This method was performed as previously described (Gratacap et al, 2009). Briefly, biochips with micro-capillaries (Vena8Fluoro+®, Cellix) were coated with collagen type I. Epi-fluorescence microscope (Axio Observer; Carl Zeiss) allowed direct visualization of platelet adhesion and aggregation which was recorded with ORCA-R2 camera (Hamamatsu). Whole blood was collected into 13.6 UI/m1 lithium heparinate and platelets were labeled with DIOC6(Life Technologies, 2 μM, 10 min at 37° C.) LG (0.05 mM) was then added to blood just prior to injection through a micro-capillary at shear rate of 1500 s^−1. Thrombus formation was visualized with a 40× long working distance objective in real time. The range was fixed to 80 μm and the interval to 1.5 μm. The acquisition rate was chosen at one frame every 30 sec divided into two positions. Quantification of surface coverage was performed off-line using ImageJ software.

Src kinases = assay: Western blotting of Src kinase cleavage; type: cell-based, human
Description: (§1) Washed platelets were treated with LG (LC and HC) or DMSO. Aliquots were taken at 0, 2.5, 5 and 10 min, lysed with sample buffer and boiled. Proteins were loaded on to sodium dodecyl sulfate 10% polyacrylamide gel and, after electrophoresis, transferred to a nitrocellulose membrane. […] Phospho antibodies were diluted in TBS-Tween 5%-BSA (w/v) and incubated overnight and the others for 2 h. After washing, each blot was incubated with the corresponding horseradish peroxidase-conjugated anti-mouse or anti-rabbit. Immunoblots were developed using Super signal chemiluminescent substrate (Pierce, Rockford, IL) and analyzed with chemidoc Imaging system (Biorad).

CD62-P (P-selectin) = assay: Flow cytometry of α-granule secretion marker CD62-P; type: cell-based, human
Description: (§2) Washed platelets were pre-incubated with LG or DMSO for 5 and 10 min at 37° C. Samples were then incubated for 15 min at room temperature in the dark with anti-CD62P, anti-CD63 or monoclonal antibody PAC-1. This last recognize and binds only to the active form of integrin αIIbβ3 complex. Analysis of respective protein was performed using a FACS-Verse cytometer BD Biosciences). Platelets were identified on the basis of their Forward Scatter and Side Scatter properties.

CD63 = assay: Flow cytometry of dense granule secretion marker CD63; type: cell-based, human; conditions: following addition of LG
Description: as §2

washed human platelets [2] = assay: Calcium mobilization with CalciFluor 8-AM and flow cytometry; type: cell-based
Description: Platelet calcium flux was adapted from the work described by (Monteiro et al. 1999). Washed platelets re-suspended at 10^8/ml in platelet wash buffer were incubated with the calcium indicator dyes Calcifluor 8-AM (R&D system) at 5 μM and Pluronic F-127 0.02% v/v (Sigma Aldrich) for 30 min at 37° C. The platelets were washed twice with platelet wash buffer, re-suspended in Tyrode's buffer containing EGTA (1 mM) or BAPTA-AM (10 μM). Changes in cytosolic calcium concentration were associated with increased or decreased fluorescence emission of Calcifluor 8-AM (emission wavelengths of 500-570 nm). These changes were analyzed using flow cytometry BD LSRII Fortessa. Results were expressed in fold increased Median Fluorescence. The determination of internal calcium concentration in platelet was described by Grynkiewicz et al. (1985).

p38 MAPK = assay: Western blotting of p38 MAPK phosphorylation (Thr180/Tyr182); type: cell-based, human
Description: as §1

[3] = tested on: washed platelets from healthy donors; assay: Scanning electron microscopy of platelets; type: cell-based, human; conditions: 10 min, non-shaking
Description: Platelets are treated with TRAP 25 μM, LG (LC and HC) during 10 minutes. They were fixed in 2.5% glutaraldehyde in 0.1 M Sorensen phosphate buffer (pH 7.4) for at least 1 h at 37° C. After sedimentation, the pellets were re-suspended in water and made to adhere on poly-lysine coated glass coverslips. Platelets were then dehydrated in a graded ethanol series and dried by critical point drying with a Leica EM CPD 300. The samples were coated with 6 nm Platinium on a Leica EM Med 020 before being examined on a FEI Quanta 250 FEG scanning electron microscope, at an accelerating voltage of 5 kV (Valet 2021).

[4] = tested on: washed platelets from healthy donors; assay: Measurement of LDH leakage from washed platelets; type: cell-based, human; conditions: low doses of LG 0.1 mM), 10 min
Description: Washed platelets from healthy donors were treated with different doses of LG or control (DMSO) for 10 minutes at 37° C. Following, platelets were pelleted by centrifugation at 1800×g for 3 min. Supernatants were used to detect Lactate dehydrogenase (LDH) release by colorimetric method (Thermo Fisher Scientific), according to the manufacturer's protocol. The assay was performed in endpoint time of increased of formazan absorbance at 680 nm for 30 min. Maximal LDH leakage was obtained with lysis buffer. Results, expressed as percentage of LDH leakage are mean±SEM (n=6) (** p<0.01, *** p<0.001 according to Kruskal-Wallis test).

animal viruses = conditions: Hurtado et al, 2008; cited from earlier work
αIIbβ3 integrin = assay: Flow cytometry of αIIbβ3 activation with PAC-1 antibody; type: cell-based, human
Description: as §2

[5] = tested on: Gram-positive bacteria like Bacillus subtilis or Streptococcus mutans; conditions: cited from earlier work
Akt = assay: Western blotting of Akt phosphorylation (Ser473); type: cell-based, human
Description: as §1

fungi = conditions: Kubo et al, 2003; cited from earlier work
phosphatidylserine (PS) = assay: Phosphatidylserine exposure by annexin V binding (flow cytometry); type: cell-based, human; conditions: LG 0.05 mM
Description: For phosphatidylserine exposure, washed platelets were pre-incubated with LG 0.05 mM or DMSO for 5 min at 37° C. Dilute the activated or non-activated sample with the 1× binding buffer provided in the kit to a final volume of 100 μl and add 5 μl of Annexin V AF647 (Clinisciences) for 15 min at 37° C. in the dark. The binding reaction is stopped with 500 ill of 1× binding buffer (Ramstrom 2010). Analysis was performed using LSR Fortessa cytometer (BD Biosciences).

Wistar rats = assay: Rat tail bleeding time; type: in vivo
Description: Wistar rats of either gender weighing between 200 and 250 g were purchased from the Central Pharmacy of Tunisia. Animal handling conforms to the European Convention (CE. no. 123). Animals were fed a standard chow diet and had free access to water. They were housed five rats in a cage (0.12 m^2). Bleeding time was measured by transection of the tail, 1 cm from the tip, of phenobarbital anesthetized rats (25 mg/kg. i.p). Immediately after transection, the tail was dipped for 5 seconds into LG solution (5, 50, or 100 mg/ml of LG dissolved in ethanol) or vehicle (ethanol) and then placed carefully on Whatman paper. Blood was allowed to drop on filter paper which was moved gently every 30 seconds until no more blood was dropped. […] The bleeding time was also determined for a lot of rats not treated with any solution (control) and for another treated with ethanol to test the effect of the solvent. Tranexamic acid (100 mg/ml) was used as a standard anti-hemorrhagic drug under the same conditions. Each condition was repeated for six rats.

tumoral cell lines = conditions: Ortega et al, 2003; cited from earlier work

Question: For collagen [reference compound], which “platelet aggregation by agonist alone” value (washed human platelets [1]; collagen 0.15 μg/ml alone) is on record?
Answer: unable to trigger detectable platelet aggregation

Question: With `CCCOC(=O)c1cc(O)c(O)c(O)c1` [propyl gallate] as the molecule, how does the platelet aggregation (platelets) read?
Answer: induce platelet aggregation

Question: Which “surface covered by platelets” value (human whole blood; collagen matrix, arterial shear rate) does the source give for `CCCCCCCCCCCCOC(=O)c1cc(O)c(O)c(O)c1` [LG, Dodecyl 3,4,5-trihydroxybenzoate] here?
Answer: significantly increased

Question: And the “thrombus volumes compared to control” value (human whole blood; collagen-coated microcapillaries, shear rate 1500 s^−1)?
Answer: significantly increased

Question: And the “time to capillary occlusion” value (human whole blood; in several experiments, recording 300 s)?
Answer: < 300 s

Question: What about the Src-kinase cleavage (Src kinases; LG 0.75 mM, substantial at 10 min) of the same molecule?
Answer: induced a cleavage of Src-kinase

Question: What about the Src-kinase cleavage (Src kinases; low dose of LG (0.05 mM)) of the same molecule?
Answer: no impact

Question: And the “expression of CD62-P on the plasma membrane” value (CD62-P (P-selectin); LG 0.05 mM)?
Answer: markedly increased

Question: What about the “expression of CD62-P on the plasma membrane” value (CD62-P (P-selectin); LG 0.75 mM) of the same molecule?
Answer: markedly increased

Question: What about the “α-granule secretion intensity compared with 50 μM TRAP” value (CD62-P (P-selectin); versus 50 μM TRAP) of the same molecule?
Answer: slightly lower

Question: And the “plasma membrane expression level of CD63” value (CD63)?
Answer: significantly increased

Question: And the “cytoplasmic free calcium concentration” value (washed human platelets [2]; LG 0.05 mM, after 2.5 min)?
Answer: 230 ± 25 nM

Question: What about the free cytosolic calcium (washed human platelets [2]; LG 0.75 mM, at 0.5 min) of the same molecule?
Answer: 105 ± 15 nM

Question: And the “p38 MAPK phosphorylation” value (p38 MAPK; LG 0.05 mM)?
Answer: rapid activation

Question: And the “p38 MAPK activation” value (p38 MAPK; LG 0.75 mM)?
Answer: at later times

Question: And the platelet morphology ([3]; LG 0.05 mM)?
Answer: induced platelet shape change and filopodia formation

Question: What about the platelet morphology ([3]; LG 0.75 mM) of the same molecule?
Answer: membrane structure was strongly modified with a grainy appearance and apparent pores formation

Question: What about the “LDH release from platelets” value [4] of the same molecule?
Answer: no significant LDH release

Question: And the antiviral activity (animal viruses)?
Answer: potent antiviral activity

Question: And the “activation of αIIbβ3, lower than that induced by 50 μM TRAP” value (αIIbβ3 integrin; LG 0.05 mM versus 50 μM TRAP)?
Answer: 50%

Question: And the “expression of the active form of the fibrinogen receptor αIIbβ3” value (αIIbβ3 integrin; particularly at 0.05 mM)?
Answer: significant increase

Question: And the maximal platelet aggregation (washed human platelets [1]; LG 0.05 mM alone, washed human platelets, fast and stable)?
Answer: ~80%

Question: And the maximal platelet aggregation (washed human platelets [1]; high concentrations of LG (0.75 mM), slow response)?
Answer: ~50%

Question: And the “shape of dose-response of platelet aggregation” value (washed human platelets [1]; increasing concentrations, first peak 0.05 mM, decrease until 0.2 mM, plateau 0.75 to 1 mM)?
Answer: non-monotonic dose-response

Question: And the antibacterial activity [5]?
Answer: antibacterial activity

Question: And the Akt phosphorylation (Akt; LG 0.05 mM)?
Answer: rapid activation

Question: And the Akt activation (Akt; LG 0.75 mM)?
Answer: at later times

Question: What about the antifungal activity (fungi) of the same molecule?
Answer: does not have antifungal activity

Question: And the “exposure of PS on the platelet surface (annexin V binding)” value (phosphatidylserine (PS))?
Answer: significant exposure

Question: What about the “efficiency on bleeding time compared with tranexamic acid” value (Wistar rats; LG 50 mg/ml versus tranexamic acid 100 mg/ml in ethanol) of the same molecule?
Answer: significantly more efficient

Question: And the tail bleeding time (Wistar rats; tail dipped 5 seconds, 50 mg/ml LG in ethanol)?
Answer: dramatically reduced

Question: What about the “anti-proliferative and pro-apoptotic activity” value (tumoral cell lines) of the same molecule?
Answer: anti-proliferative and pro-apoptotic activity
